These results are taken from paper PMC6889161, “Inhibitory characteristics of flavonol-3-O-glycosides from Polygonum aviculare L. (common knotgrass) against porcine pancreatic lipase” (Scientific Reports, 2019).

In test [1] the target is T1, Lipase from porcine pancreas type II (pancreatic lipase) (Sus scrofa, UniProt P00591).
T1 construct: purchased Sigma-Aldrich Co. (St. Louis, MO, USA); host or cells: porcine pancreas (tissue preparation)
T1 sequence (P00591 1-450): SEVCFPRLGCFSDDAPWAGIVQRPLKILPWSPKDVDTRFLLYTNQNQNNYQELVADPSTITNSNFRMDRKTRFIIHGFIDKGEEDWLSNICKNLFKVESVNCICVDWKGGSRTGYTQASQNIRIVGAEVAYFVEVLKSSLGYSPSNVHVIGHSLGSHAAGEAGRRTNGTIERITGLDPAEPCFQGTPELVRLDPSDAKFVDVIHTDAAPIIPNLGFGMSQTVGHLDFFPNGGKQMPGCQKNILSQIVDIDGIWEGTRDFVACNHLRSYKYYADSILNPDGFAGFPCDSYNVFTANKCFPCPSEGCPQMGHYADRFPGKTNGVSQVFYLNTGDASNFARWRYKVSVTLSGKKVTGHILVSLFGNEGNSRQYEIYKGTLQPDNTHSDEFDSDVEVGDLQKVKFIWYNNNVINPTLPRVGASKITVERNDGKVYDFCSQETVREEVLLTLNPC
As to the kind of experiment: Pancreatic lipase inhibition assay (4-MUO substrate, fluorescence). Particulars: for Inhibition mode (type of inhibition): Lineweaver-Burk plots at 50 μM and 100 μM of compound; for IC50: from RRA of PL at various concentrations, nonlinear regression. It is filed as biochemical. The protocol:
The PL assay using 4-MUO as a substrate was conducted as described previously with slight modification[28],[29]. Lipase from porcine pancreas type II (i.e., pancreatic lipase) was dissolved in 50 mM Tris-HCl buffer (pH 8.0) to give 10 mg/mL, and centrifuged at 5,000 g for 10 min to remove insoluble material before the enzyme assay. Then, 50 µL of 0.5 mM 4-MUO solution dissolved in the above buffer and 100 µL of the sample solution dissolved in methanol (i.e., the inhibitor solution) were mixed in 96-well microplate to form the reaction system. The enzymatic hydrolysis was initiated by adding 50 µL of the PL solution to the reaction system (final 250 units/mL) at 37 °C. […] The inhibitory activities against PL were calculated for comparison with each other, as follows:1 Inhibition(%)=A0−AS/A0×100 where A0 is the relative fluorescence unit after the reaction for 30 min in the absence of sample (i.e., only methanol) and AS is the fluorescence unit in the presence of sample.
To determine the IC50, the RRA of PL in the presence of the sample at various concentrations was evaluated. The reaction of PL was measured by the same procedure described above, and the RRA was calculated from the following equation:2 Relativeresidualactivity(%)=vS/v0×100 where ν0 is the initial velocity of the reaction in the absence of sample (i.e., only methanol) and νS is the initial velocity in the presence of sample. […] The type of inhibition was elucidated by evaluating the changes of kinetic parameters from Lineweaver-Burk plot as follows:3 1/v=Km/Vmax1/[S]+1/Vmax where [S] is the concentration of substrate, v is the initial velocity of the reaction, Vmax is the maximum initial velocity when substrate approaches infinite concentration, and Km is the dissociation constant of the enzyme-substrate complex (i.e., the Michaelis constant).

The next test relates to T2, pancreatic lipase (PL).
T2 construct: purchased Sigma-Aldrich Co. (St. Louis, MO, USA); host or cells: porcine pancreas (tissue preparation)
The test is described as follows: Fluorescence emission spectroscopy (tryptophan fluorescence quenching of PL). It is filed as binding, porcine. Particulars: for kq (bimolecular quenching constant): calculated from KSV with τ0 = 1.59 ns; for KSV (Stern-Volmer quenching constant): excitation 295 nm, 40 µM PL; for KA (binding constant) / n (number of binding sites): double-logarithmic equation. How it is done:
The fluorescence spectra of PL in the presence of the sample were measured on a SpectraMax® i3 Multi-Mode Microplate Reader (Molecular Devices) as described previously with slight modification. In brief, aliquots of the sample solution at various concentrations (0−100 µM) were added into 40 µM of PL solution. The mixture was incubated for 30 min at 25 °C and 37 °C, and the fluorescence emission spectra were measured in the range of 315−400 nm upon excitation at 295 nm. The excitation and emission slit widths were set at 9 and 15 nm, respectively. The fluorescence data were analyzed by fitting to the Stern-Volmer equation for analysis of fluorescence quenching[23]:4 F0/F=1+KSV[Q]=1+kqτ0[Q] where F0 and F is the fluorescence intensity in the absence and presence of quencher, respectively, kq is the bimolecular quenching constant, τ0 is the lifetime of fluorescence in the absence of quencher, KSV is the Stern-Volmer quenching constant, and [Q] is the concentration of quencher. KSV was obtained from the slope of a plot of F0/F versus [Q] by linear regression curve fitting, and kq was calculated by KSV, where τ0 is equal to 1.59 ns[31]. The binding constant (KA) and number of binding sites (n) were obtained according to a double-logarithmic equation[32]:5 logF0−F/F=logKA+nlog[Q]

Take `O=c1c(O)c(-c2ccc(O)c(O)c2)oc2cc(O)cc(O)c12` [Quercetin]: the “Inhibition mode (type of inhibition)” value in test [1] is “competitive inhibition”. In the test with pancreatic lipase (PL) (25 °C), the “kq (bimolecular quenching constant)” value is listed as 6.29 10^12 M^−1s^−1 and the “KSV (Stern-Volmer quenching constant)” value is 1.00 10^4 M^−1. Besides, in the test on pancreatic lipase (PL) (37 °C), the “kq (bimolecular quenching constant)” value is given as 5.91 10^12 M^−1s^−1, the “KA (binding constant)” value was 3.57 10^4 M^−1, the “n (number of binding sites)” value was 1.1471 and the “KSV (Stern-Volmer quenching constant)” value is on record as 0.94 10^4 M^−1. The “KA (binding constant)” value in the test with pancreatic lipase (PL) worked out at 35700 M⁻¹.

As for `O=c1c(O[C@@H]2O[C@@H](CO)[C@H](O)[C@H]2O)c(-c2ccc(O)c(O)c2)oc2cc(O)cc(O)c12` [Avicularin, quercetin-3-O-α-L-arabinofuranoside], in test [1], the “Inhibition mode (type of inhibition)” value is recorded as “non-competitive or mixed-type inhibition” and the IC50 (commonly the point on the concentration scale where inhibition reaches its midpoint) is 142 µM. Also, in the test with pancreatic lipase (PL) (25 °C), the “kq (bimolecular quenching constant)” value was 3.52 10^12 M^−1s^−1 and the “KSV (Stern-Volmer quenching constant)” value is given as 0.56 10^4 M^−1. Further, in the test with pancreatic lipase (PL) (37 °C), the “kq (bimolecular quenching constant)” value is listed as 3.71 10^12 M^−1s^−1, the “KA (binding constant)” value was 0.94 10^4 M^−1, the “n (number of binding sites)” value is 1.1119 and the “KSV (Stern-Volmer quenching constant)” value was 0.59 10^4 M^−1. Moreover, in the test with pancreatic lipase (PL), the “KA (binding constant)” value was 9400 M⁻¹.

For the compound `O=c1c(O)c(-c2ccc(O)cc2)oc2cc(O)cc(O)c12` [Kaempferol], in test [1], the “Inhibition mode (type of inhibition)” value is listed as “competitive inhibition” and it took 79.4 µM to reach half-maximal inhibition (IC50). Moreover, in the test on pancreatic lipase (PL) (25 °C), the “kq (bimolecular quenching constant)” value is recorded as 7.67 10^12 M^−1s^−1 and the “KSV (Stern-Volmer quenching constant)” value is 1.22 10^4 M^−1. For the same compound, in the test with pancreatic lipase (PL) (37 °C), the “kq (bimolecular quenching constant)” value is 6.48 10^12 M^−1s^−1, the “KA (binding constant)” value is 2.07 10^4 M^−1, the “n (number of binding sites)” value stood at 1.1103 and the “KSV (Stern-Volmer quenching constant)” value is recorded as 1.03 10^4 M^−1. For the same compound, the “KA (binding constant)” value with pancreatic lipase (PL) worked out at 20700 M⁻¹.

On to “myricetin-3-O-α-L-rhamnopyranoside [Myricitrin]”, for which the “Inhibition mode (type of inhibition)” value in test [1] is on record as “non-competitive or mixed-type inhibition”. In addition, in the test with pancreatic lipase (PL) (25 °C), the “kq (bimolecular quenching constant)” value is 7.48 10^12 M^−1s^−1 and the “KSV (Stern-Volmer quenching constant)” value is given as 1.19 10^4 M^−1. Also, in the test with pancreatic lipase (PL) (37 °C), the “kq (bimolecular quenching constant)” value is listed as 7.74 10^12 M^−1s^−1, the “KA (binding constant)” value is reported as 1.45 10^4 M^−1, the “n (number of binding sites)” value is listed as 1.0228 and the “KSV (Stern-Volmer quenching constant)” value was 1.23 10^4 M^−1. Besides, the “KA (binding constant)” value in the test with pancreatic lipase (PL) came to 14500 M⁻¹.

Turning to `C[C@@H]1O[C@@H](Oc2c(-c3ccc(O)c(O)c3)oc3cc(O)cc(O)c3c2=O)[C@H](O)[C@H](O)[C@H]1O` [Quercitrin, quercetin-3-O-α-L-rhamnopyranoside], in test [1], the “Inhibition mode (type of inhibition)” value is given as “non-competitive or mixed-type inhibition” and the IC50 is 101 µM. In addition, in the test with pancreatic lipase (PL) (25 °C), the “kq (bimolecular quenching constant)” value is 8.05 10^12 M^−1s^−1 and the “KSV (Stern-Volmer quenching constant)” value is given as 1.28 10^4 M^−1. Also, in the test on pancreatic lipase (PL) (37 °C), the “kq (bimolecular quenching constant)” value is recorded as 8.30 10^12 M^−1s^−1, the “KA (binding constant)” value is given as 1.00 10^4 M^−1, the “n (number of binding sites)” value amounted to 0.9760 and the “KSV (Stern-Volmer quenching constant)” value is reported as 1.32 10^4 M^−1. Moreover, in the test on pancreatic lipase (PL), the “KA (binding constant)” value is 10000 M⁻¹.
